# Results reported in ChEMBL document CHEMBL5247602, “Developing a Naïve Bayesian Classification Model with PI3Kγ structural features for virtual screening against PI3Kγ: Combining molecular docking and pharmacophore based on multiple PI3Kγ conformations” (Eur J Med Chem, 2022).
# pIC50: −log10 of the molar value.
# Columns and labels:
# [1] = target: Phosphatidylinositol 4,5-bisphosphate 3-kinase catalytic subunit alpha isoform (Homo sapiens, UniProt P42336); test: Inhibition of PI3Kalpha (unknown origin) preincubated for 10 mins followed by ATP addition and measured after 60 mins by ADP-Glo assay
# Chain of Phosphatidylinositol 4,5-bisphosphate 3-kinase catalytic subunit alpha isoform (P42336 whole entry, canonical isoform): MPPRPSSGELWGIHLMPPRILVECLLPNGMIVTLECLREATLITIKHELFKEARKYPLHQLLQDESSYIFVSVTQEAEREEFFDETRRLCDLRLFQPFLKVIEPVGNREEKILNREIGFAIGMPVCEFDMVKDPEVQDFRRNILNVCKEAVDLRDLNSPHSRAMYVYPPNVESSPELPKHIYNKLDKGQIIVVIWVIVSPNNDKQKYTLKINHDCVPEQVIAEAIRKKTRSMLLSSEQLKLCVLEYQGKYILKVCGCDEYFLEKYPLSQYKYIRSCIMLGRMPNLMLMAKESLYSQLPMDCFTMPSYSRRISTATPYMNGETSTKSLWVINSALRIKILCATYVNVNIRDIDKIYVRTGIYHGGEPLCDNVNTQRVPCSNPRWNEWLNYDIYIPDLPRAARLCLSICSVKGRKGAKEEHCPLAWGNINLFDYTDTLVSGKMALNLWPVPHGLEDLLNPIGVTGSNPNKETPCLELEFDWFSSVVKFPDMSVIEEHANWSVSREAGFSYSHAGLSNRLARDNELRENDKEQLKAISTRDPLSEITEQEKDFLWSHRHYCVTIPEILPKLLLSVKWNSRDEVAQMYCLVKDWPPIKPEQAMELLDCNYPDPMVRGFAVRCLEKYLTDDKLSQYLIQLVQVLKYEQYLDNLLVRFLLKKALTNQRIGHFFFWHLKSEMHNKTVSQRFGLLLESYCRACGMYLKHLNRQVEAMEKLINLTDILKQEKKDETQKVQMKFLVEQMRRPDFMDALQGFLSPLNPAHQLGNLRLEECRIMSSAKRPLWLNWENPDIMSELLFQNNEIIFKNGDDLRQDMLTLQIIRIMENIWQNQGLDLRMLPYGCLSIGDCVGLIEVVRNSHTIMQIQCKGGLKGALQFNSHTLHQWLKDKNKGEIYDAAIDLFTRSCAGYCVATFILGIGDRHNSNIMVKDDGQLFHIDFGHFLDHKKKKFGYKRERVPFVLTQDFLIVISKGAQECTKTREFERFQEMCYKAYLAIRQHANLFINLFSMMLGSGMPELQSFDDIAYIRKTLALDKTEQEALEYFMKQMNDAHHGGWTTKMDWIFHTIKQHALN
# [2] = target: T1, Phosphatidylinositol 4,5-bisphosphate 3-kinase catalytic subunit gamma isoform (Homo sapiens, UniProt P48736); test: Inhibition of PI3Kgamma (unknown origin) preincubated for 10 mins followed by ATP addition and measured after 60 mins by ADP-Glo assay
# Target sequence in this assay (P48736 whole entry, canonical isoform): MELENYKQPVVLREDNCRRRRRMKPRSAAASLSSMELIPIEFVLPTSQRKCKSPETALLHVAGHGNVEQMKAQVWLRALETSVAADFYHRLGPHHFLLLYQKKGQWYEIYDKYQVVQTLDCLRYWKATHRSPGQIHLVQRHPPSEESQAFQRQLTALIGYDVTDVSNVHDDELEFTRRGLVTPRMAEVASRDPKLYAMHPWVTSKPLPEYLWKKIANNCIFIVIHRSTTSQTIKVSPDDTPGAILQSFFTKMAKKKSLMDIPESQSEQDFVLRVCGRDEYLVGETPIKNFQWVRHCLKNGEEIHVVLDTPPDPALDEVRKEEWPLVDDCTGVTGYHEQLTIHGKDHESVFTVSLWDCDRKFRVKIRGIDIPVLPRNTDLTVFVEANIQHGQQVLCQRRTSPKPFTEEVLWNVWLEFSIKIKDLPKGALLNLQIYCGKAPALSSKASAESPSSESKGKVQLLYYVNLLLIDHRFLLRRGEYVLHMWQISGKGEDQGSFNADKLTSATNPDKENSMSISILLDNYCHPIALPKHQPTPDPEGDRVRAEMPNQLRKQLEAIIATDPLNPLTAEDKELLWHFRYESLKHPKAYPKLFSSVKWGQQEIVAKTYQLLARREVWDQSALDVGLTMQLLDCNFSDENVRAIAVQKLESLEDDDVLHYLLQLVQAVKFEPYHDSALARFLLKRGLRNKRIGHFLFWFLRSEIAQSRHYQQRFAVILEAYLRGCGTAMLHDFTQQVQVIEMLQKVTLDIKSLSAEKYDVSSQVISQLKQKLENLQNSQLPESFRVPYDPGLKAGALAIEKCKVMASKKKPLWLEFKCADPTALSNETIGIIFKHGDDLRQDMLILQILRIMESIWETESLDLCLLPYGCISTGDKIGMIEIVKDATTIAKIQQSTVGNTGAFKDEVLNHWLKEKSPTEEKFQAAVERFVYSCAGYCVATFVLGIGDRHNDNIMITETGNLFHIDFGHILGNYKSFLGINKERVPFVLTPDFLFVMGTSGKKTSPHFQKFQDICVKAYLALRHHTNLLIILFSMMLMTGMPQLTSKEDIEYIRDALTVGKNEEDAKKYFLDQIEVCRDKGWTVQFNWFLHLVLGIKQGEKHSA
# [3] = target: T1, Phosphatidylinositol 4,5-bisphosphate 3-kinase catalytic subunit gamma isoform; test: Inhibition of PI3Kgamma (unknown origin) at 10 uM preincubated for 10 mins followed by ATP addition and measured after 60 mins by ADP-Glo assay relative to control; conditions: time 70.0 min
# Target sequence in this assay (P48736 whole entry, looked up, canonical isoform): as the sequence (P48736 whole entry, canonical isoform) above
# RAW264.7 [4] = test: Inhibition of PI3K/AKT signalling pathway in mouse RAW264.7 cells assessed as reduction in LPS-stimulated phosphorylation of AKT at Ser473 residue at 5 to 20 uM preincubated with compound followed by LPS stimulation for 6 hrs by Western blot analysis; assay type: cell-based; conditions: dose 5-20 µM, TDE = time-dependent effect
# [5] = target: Phosphatidylinositol 4,5-bisphosphate 3-kinase catalytic subunit beta isoform (Homo sapiens, UniProt P42338); test: Inhibition of PI3Kbeta (unknown origin) preincubated for 10 mins followed by ATP addition and measured after 60 mins by ADP-Glo assay
# Chain of Phosphatidylinositol 4,5-bisphosphate 3-kinase catalytic subunit beta isoform (P42338 whole entry, canonical isoform): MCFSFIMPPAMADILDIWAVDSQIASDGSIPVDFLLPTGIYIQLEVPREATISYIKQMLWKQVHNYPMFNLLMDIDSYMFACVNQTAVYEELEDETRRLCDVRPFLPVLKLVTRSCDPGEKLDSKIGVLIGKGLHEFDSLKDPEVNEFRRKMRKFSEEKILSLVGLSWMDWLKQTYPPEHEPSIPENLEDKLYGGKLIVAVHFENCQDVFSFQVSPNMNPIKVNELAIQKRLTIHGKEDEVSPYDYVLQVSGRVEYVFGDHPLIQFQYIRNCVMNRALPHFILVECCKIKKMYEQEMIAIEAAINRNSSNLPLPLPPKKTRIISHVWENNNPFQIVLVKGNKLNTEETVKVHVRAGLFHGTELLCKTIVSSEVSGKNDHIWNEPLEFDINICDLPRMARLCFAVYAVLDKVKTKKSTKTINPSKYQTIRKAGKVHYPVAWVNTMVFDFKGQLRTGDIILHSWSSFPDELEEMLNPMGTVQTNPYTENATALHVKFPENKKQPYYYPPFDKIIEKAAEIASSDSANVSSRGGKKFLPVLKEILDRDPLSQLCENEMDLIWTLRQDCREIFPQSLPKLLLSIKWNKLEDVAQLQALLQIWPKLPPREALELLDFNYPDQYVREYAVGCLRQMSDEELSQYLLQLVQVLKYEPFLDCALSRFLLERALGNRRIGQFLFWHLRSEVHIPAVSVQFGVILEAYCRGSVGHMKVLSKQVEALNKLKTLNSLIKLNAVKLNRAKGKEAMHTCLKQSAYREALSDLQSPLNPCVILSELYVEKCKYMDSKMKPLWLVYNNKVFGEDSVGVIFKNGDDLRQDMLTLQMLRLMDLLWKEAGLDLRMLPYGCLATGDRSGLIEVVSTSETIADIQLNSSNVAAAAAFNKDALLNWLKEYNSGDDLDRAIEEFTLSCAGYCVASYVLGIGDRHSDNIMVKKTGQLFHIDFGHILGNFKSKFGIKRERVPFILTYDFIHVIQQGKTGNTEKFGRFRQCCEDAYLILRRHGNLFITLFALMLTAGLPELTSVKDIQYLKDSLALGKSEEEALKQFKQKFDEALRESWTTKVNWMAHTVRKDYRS
# [6] = target: T2, Phosphatidylinositol 4,5-bisphosphate 3-kinase catalytic subunit delta isoform (Homo sapiens, UniProt O00329); test: Inhibition of PI3Kdelta (unknown origin) preincubated for 10 mins followed by ATP addition and measured after 60 mins by ADP-Glo assay
# T2 sequence (O00329 whole entry): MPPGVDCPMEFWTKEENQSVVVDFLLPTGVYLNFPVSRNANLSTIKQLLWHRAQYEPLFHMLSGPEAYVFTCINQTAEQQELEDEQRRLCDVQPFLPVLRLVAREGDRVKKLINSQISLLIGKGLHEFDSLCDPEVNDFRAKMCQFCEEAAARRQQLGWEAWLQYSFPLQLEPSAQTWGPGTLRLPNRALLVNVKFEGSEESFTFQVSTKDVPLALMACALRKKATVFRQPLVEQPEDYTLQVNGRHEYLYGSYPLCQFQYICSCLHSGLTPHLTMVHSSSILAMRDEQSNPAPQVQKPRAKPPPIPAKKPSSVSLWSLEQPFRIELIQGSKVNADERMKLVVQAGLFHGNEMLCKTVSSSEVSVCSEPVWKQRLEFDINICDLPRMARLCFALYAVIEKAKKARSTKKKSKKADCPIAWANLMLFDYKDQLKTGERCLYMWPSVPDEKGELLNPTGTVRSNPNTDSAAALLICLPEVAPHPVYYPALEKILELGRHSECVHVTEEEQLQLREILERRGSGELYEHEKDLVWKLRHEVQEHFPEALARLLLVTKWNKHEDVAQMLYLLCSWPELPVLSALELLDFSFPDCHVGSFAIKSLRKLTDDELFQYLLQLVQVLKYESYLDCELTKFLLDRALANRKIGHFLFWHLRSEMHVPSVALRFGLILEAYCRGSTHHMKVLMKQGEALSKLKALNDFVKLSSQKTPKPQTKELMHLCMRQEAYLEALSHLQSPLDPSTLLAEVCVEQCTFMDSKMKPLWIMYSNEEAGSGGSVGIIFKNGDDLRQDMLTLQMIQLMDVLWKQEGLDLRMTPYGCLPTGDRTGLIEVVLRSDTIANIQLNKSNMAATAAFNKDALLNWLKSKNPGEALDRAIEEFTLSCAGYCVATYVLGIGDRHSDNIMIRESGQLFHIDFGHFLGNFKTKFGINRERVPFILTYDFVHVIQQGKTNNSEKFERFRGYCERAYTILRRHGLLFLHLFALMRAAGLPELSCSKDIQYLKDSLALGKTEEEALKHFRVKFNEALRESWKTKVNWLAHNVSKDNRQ
# RAW264.7 [7] = test: Inhibition of PI3K/AKT signalling pathway in mouse RAW264.7 cells assessed as reduction in LPS-stimulated phosphorylation of AKT at Ser473 residue preincubated for 6 hrs followed by LPS stimulation for 6 hrs by Western blot analysis; assay type: cell-based; conditions: dose 5-20 µM, time 12.0 hrs
# [8] = target: Phosphatidylinositol 4,5-bisphosphate 3-kinase catalytic subunit gamma isoform (Mus musculus) (UniProt Q9JHG7); test: Inhibition of PI3Kgamma in mouse RAW264 cells assessed as reduction in LPS-stimulated TNFalpha mRNA expression preincubated for 6 hrs followed by LPS addition and measured after 24 hrs by RT-PCR analysis; assay type: cell-based; conditions: RAW264.7, dose 1.2-10 µM, time 30.0 hrs
# Chain of Phosphatidylinositol 4,5-bisphosphate 3-kinase catalytic subunit gamma isoform (Mus musculus) (Q9JHG7 whole entry, looked up, canonical isoform): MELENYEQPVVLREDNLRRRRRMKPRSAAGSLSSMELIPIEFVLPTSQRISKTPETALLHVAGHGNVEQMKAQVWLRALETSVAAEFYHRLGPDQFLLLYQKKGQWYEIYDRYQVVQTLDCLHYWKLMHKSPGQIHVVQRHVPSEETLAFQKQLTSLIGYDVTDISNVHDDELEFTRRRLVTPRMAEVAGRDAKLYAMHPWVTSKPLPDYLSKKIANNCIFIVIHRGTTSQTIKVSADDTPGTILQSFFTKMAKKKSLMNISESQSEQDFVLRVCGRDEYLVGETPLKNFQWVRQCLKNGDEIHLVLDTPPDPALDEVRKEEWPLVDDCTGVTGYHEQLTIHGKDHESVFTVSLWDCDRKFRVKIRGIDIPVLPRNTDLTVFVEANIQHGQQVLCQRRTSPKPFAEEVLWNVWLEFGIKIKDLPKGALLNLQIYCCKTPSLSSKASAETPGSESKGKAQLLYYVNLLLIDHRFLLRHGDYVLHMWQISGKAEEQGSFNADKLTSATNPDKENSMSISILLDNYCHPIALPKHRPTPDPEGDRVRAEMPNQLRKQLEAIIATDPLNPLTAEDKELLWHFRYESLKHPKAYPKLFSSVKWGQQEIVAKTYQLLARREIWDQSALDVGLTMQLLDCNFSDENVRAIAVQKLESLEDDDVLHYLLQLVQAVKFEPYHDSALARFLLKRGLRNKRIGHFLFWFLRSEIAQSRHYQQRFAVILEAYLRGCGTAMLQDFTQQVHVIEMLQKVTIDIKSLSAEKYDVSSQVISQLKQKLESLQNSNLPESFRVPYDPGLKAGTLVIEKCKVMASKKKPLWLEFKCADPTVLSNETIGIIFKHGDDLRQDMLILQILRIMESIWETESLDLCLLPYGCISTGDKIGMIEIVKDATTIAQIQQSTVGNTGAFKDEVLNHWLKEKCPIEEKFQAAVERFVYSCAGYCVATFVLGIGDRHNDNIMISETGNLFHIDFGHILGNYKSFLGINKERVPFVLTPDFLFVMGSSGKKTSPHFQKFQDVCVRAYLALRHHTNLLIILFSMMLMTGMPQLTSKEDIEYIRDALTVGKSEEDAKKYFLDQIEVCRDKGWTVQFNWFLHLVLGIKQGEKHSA
# [9] = target: Phosphatidylinositol 4,5-bisphosphate 3-kinase catalytic subunit gamma isoform (Mus musculus) (UniProt Q9JHG7); test: Inhibition of PI3Kgamma in mouse RAW264 cells assessed as reduction in LPS-stimulated IL-6 mRNA expression preincubated for 6 hrs followed by LPS addition and measured after 24 hrs by RT-PCR analysis; assay type: cell-based; conditions: RAW264.7, dose 1.2-10 µM, time 30.0 hrs
pIC50 [1],pIC50 [2],inhibition [3] [%],pIC50 [5],pIC50 [6],inhibition [8],inhibition [9],Compound,inhibition (RAW264.7 [4]),inhibition (RAW264.7 [7])
5.25,5.61,80,5.30,4.93,Dose-Dependent Effect,Dose-Dependent Effect,Cn1c(=O)n(C)c2ccc3ccc4ccc1c2c43,Tde,Dose-Dependent Effect
,4.76,55,,,,,Cn1c(=O)c2cc(S(N)(=O)=O)ccc2n(C)c1=O,,
,4.80,40,,,,,Cn1c(=O)c2cc(S(=O)(=O)NC3CC3)ccc2n(C)c1=O,,
